Measured values: patent publication US20240018161A1, “MODULATORS OF CYSTIC FIBROSIS TRANSMEMBRANE CONDUCTANCE REGULATOR” (VERTEX PHARMACEUTICALS INCORPORATED, priority 2020, published 2024)

Target: CFTR-mediated chloride transport in human intestinal epithelial enteroid cells (Homo sapiens, UniProt P13569)
Test: Membrane potential dye, Enteroid Assay A
Assay type: cell-based
Conditions: Enteroid Assay A; for EC50: read-out: Ent. A EC50
How it was run: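 Membrane potential dye (20 μM methyl oxonol, with 30 μM CaCCinh-A01 and 30 μM Chicago Sky Blue) loaded 25 min at room temperature into ROCK-inhibitor-seeded human enteroid cells. Chloride-free stimulation buffer triggered transport, followed by 15 min fluorescence. % Activity relative to 3 μM/3 μM/300 nM triple-combination control.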

Sequence of CFTR-mediated chloride transport in human intestinal epithelial enteroid cells (P13569 with tags, fused parts or gaps DEL508-508): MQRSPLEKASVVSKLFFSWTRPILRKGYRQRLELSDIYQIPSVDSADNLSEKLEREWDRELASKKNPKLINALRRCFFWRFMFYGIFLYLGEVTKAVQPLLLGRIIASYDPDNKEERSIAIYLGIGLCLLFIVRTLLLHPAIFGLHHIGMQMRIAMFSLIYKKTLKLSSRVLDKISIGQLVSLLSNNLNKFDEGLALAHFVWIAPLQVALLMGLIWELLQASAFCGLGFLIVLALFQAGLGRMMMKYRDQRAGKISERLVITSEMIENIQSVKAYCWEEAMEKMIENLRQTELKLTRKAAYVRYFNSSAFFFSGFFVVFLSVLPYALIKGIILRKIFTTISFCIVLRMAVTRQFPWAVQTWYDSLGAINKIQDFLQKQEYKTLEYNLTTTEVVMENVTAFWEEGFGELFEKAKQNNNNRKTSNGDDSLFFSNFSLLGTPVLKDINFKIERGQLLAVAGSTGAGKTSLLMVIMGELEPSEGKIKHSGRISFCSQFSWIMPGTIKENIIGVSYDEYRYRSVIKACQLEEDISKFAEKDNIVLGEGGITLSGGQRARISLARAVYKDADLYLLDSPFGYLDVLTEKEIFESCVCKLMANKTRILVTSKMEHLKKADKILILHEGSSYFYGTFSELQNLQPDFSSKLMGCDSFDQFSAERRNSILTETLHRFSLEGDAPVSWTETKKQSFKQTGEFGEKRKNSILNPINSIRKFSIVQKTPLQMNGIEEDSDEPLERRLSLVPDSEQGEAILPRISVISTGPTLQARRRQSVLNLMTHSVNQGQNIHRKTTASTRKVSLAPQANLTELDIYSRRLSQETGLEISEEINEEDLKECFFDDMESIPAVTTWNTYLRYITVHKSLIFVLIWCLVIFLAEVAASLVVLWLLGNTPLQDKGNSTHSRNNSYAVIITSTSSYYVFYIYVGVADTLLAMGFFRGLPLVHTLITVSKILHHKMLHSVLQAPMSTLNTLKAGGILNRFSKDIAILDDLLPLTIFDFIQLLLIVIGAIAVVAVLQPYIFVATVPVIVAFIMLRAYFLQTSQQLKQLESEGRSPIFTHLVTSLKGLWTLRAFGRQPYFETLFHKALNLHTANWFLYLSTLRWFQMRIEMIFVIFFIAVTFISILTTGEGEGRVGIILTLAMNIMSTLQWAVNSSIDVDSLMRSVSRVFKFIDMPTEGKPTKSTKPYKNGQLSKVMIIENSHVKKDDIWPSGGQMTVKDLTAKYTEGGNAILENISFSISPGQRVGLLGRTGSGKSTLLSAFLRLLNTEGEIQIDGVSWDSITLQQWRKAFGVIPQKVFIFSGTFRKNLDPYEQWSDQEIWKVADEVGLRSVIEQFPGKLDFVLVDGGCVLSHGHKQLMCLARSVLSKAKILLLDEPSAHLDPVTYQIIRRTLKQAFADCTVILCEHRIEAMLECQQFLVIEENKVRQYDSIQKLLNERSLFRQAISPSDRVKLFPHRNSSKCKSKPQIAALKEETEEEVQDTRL

Compound | Ent. A Max Activity (%) | EC50
Cc1cccc(C)c1-c1cc2nc(n1)NS(=O)(=O)c1cccc(c1)CN1CC(CN(C3CCC(F)(F)CC3)CC1=O)O2 (stereo not drawn) [Compound 78, 18-(4,4-Difluorocyclohexyl)-12-(2,6-dimethylphenyl)-15-oxa-8λ^6-thia-1,9,11,18,22-pentaazatetracyclo[14.4.1.13,7.110,14]tricosa-3(23),4,6,10,12,14(22)-hexaene-8,8,20-trione] | ++ (++ is 30-60%) | < 1 µM
Cc1cccc(C)c1-c1cc2nc(n1)NS(=O)(=O)c1cccc(c1)C(=O)N1CCN(C(=O)CC34CC5CC(CC(C5)C3)C4)C[C@H](C1)O2 [Compound 79, (16R)-18-[2-(Adamantan-1-yl)acetyl]-12-(2,6-dimethylphenyl)-15-oxa-8λ^6-thia-1,9,11,18,22-pentaazatetracyclo[14.4.1.13,7.110,14]tricosa-3(23),4,6,10,12,14(22)-hexaene-2,8,8-trione] | +++ (+++ is >600%) | < 1 µM
Cc1cccc(C)c1-c1cc2nc(n1)NS(=O)(=O)c1cccc(c1)C(=O)N1CCN(C(=O)C(C)(C)C)C[C@H](C1)O2 [Compound 80, (16R)-12-(2,6-Dimethylphenyl)-18-(2,2-dimethylpropanoyl)-15-oxa-8λ^6-thia-1,9,11,18,22-pentaazatetracyclo[14.4.1.13,7.110,14]tricosa-3(23),4,6,10,12,14(22)-hexaene-2,8,8-trione] | +++ (+++ is >600%) | 3 to 30 µM
Cc1cccc(C)c1-c1cc2nc(n1)NS(=O)(=O)c1cccc(c1)C(=O)N1CCN(C(=O)CC(C)(C)C)C[C@H](C1)O2 [Compound 81, (16R)-18-(3,3-Dimethylbutanoyl)-12-(2,6-dimethylphenyl)-15-oxa-8λ^6-thia-1,9,11,18,22-pentaazatetracyclo[14.4.1.13,7.110,14]tricosa-3(23),4,6,10,12,14(22)-hexaene-2,8,8-trione] | +++ (+++ is >600%) | 1 to 3 µM
Cc1cccc(C)c1-c1cc2nc(n1)NS(=O)(=O)c1cccc(c1)C(=O)N1CCN(Cc3ccccc3)CC(C)(C1)O2 (stereo not drawn) [Compound 82, 18-Benzyl-12-(2,6-dimethylphenyl)-16-methyl-15-oxa-8λ^6-thia-1,9,11,18,22-pentaazatetracyclo[14.4.1.13,7.110,14]tricosa-3(23),4,6,10,12,14(22)-hexaene-2,8,8-trione] | +++ (+++ is >600%) | 1 to 3 µM
Cc1cccc(C)c1-c1cc2nc(n1)NS(=O)(=O)c1cccc(c1)C(=O)N1CCN(C3CC4(CCCC4)C3)C[C@@H](O2)[C@H]1CC(C)C [Compound 83, (16R,21R)-12-(2,6-Dimethylphenyl)-21-(2-methylpropyl)-18-{spiro[3.4]octan-2-yl}-15-oxa-8λ^6-thia-1,9,11,18,22-pentaazatetracyclo[14.4.1.13,7.110,14]tricosa-3(23),4,6,10(22),11,13-hexaene-2,8,8-trione] | +++ (+++ is >600%) | < 1 µM
Cc1cccc(C)c1-c1cc2nc(n1)NS(=O)(=O)c1cccc(c1)C(=O)N1CCNCC(O2)C1CC(C)C (stereo not drawn) [Compound 93, 12-(2,6-Dimethylphenyl)-21-(2-methylpropyl)-15-oxa-8λ^6-thia-1,9,11,18,22-pentaazatetracyclo[14.4.1.13,7.110,14]tricosa-3(23),4,6,10(22),11,13-hexaene-2,8,8-trione] | +++ (+++ is >600%) | 1 to 3 µM
Cc1cccc(C)c1-c1cc2nc(n1)NS(=O)(=O)c1cccc(c1)C(=O)N1C[C@@H](CNC[C@@H]1CC(C)C)O2 [Compound 95, (16R,20S)-12-(2,6-Dimethylphenyl)-20-(2-methylpropyl)-15-oxa-8λ^6-thia-1,9,11,18,22-pentaazatetracyclo[14.4.1.13,7.110,14]tricosa-3(23),4,6,10(22),11,13-hexaene-2,8,8-trione] | ++ (++ is 30-60%) | < 1 µM
Cc1cccc(C)c1-c1cc2nc(n1)NS(=O)(=O)c1cccc(c1)C(=O)N1C[C@@H](CN(C3CC4(CCCC4)C3)C[C@@H]1CC(C)C)O2 [Compound 97, (16R,20S)-12-(2,6-Dimethylphenyl)-20-(2-methylpropyl)-18-{spiro[3.4]octan-2-yl}-15-oxa-8λ^6-thia-1,9,11,18,22-pentaazatetracyclo[14.4.1.13,7.110,14]tricosa-3(23),4,6,10(22),11,13-hexaene-2,8,8-trione] | ++ (++ is 30-60%) | < 1 µM
Cc1cccc(C)c1-c1cc2nc(n1)NS(=O)(=O)c1cccc(c1)C(=O)N1C[C@@H](CN(CC(F)(F)F)C[C@@H]1CC(C)C)O2 [Compound 98, (16R,20S)-12-(2,6-Dimethylphenyl)-20-(2-methylpropyl)-18-(2,2,2-trifluoroethyl)-15-oxa-8λ^6-thia-1,9,11,18,22-pentaazatetracyclo[14.4.1.13,7.110,14]tricosa-3(23),4,6,10(22),11,13-hexaene-2,8,8-trione] | + (+ is <30%) | 
Cc1cccc(C)c1-c1cc2nc(n1)NS(=O)(=O)c1cccc(c1)C(=O)N1C[C@@H](CN(C)C[C@@H]1CC(C)C)O2 [Compound 99, (16R,20S)-12-(2,6-Dimethylphenyl)-18-methyl-20-(2-methylpropyl)-15-oxa-8λ^6-thia-1,9,11,18,22-pentaazatetracyclo[14.4.1.13,7.110,14]tricosa-3(23),4,6,10(22),11,13-hexaene-2,8,8-trione] | ++ (++ is 30-60%) | < 1 µM
Cc1cccc(C)c1-c1cc2nc(n1)NS(=O)(=O)c1cccc(c1)C(=O)N1C[C@@H](CNC[C@H]1CC(C)C)O2 [Compound 101, (16R,20R)-12-(2,6-Dimethylphenyl)-20-(2-methylpropyl)-15-oxa-8λ^6-thia-1,9,11,18,22-pentaazatetracyclo[14.4.1.13,7.110,14]tricosa-3(23),4,6,10,12,14(22)-hexaene-2,8,8-trione] | ++ (++ is 30-60%) | < 1 µM
Cc1cccc(C)c1-c1cc2nc(n1)NS(=O)(=O)c1cccc(c1)C(=O)N1C[C@@H](CN(C)C[C@H]1CC(C)C)O2 [Compound 103, (16R,20R)-12-(2,6-Dimethylphenyl)-18-methyl-20-(2-methylpropyl)-15-oxa-8λ^6-thia-1,9,11,18,22-pentaazatetracyclo[14.4.1.13,7.110,14]tricosa-3(23),4,6,10(22),11,13-hexaene-2,8,8-trione] | +++ (+++ is >600%) | < 1 µM
Cc1cccc(C)c1-c1cc2nc(n1)NS(=O)(=O)c1cccc(c1)C(=O)N1C[C@@H](CN(CC(C)(C)C)C[C@H]1CC(C)C)O2 [Compound 104, (16R,20R)-12-(2,6-Dimethylphenyl)-18-(2,2-dimethylpropyl)-20-(2-methylpropyl)-15-oxa-8λ^6-thia-1,9,11,18,22-pentaazatetracyclo[14.4.1.13,7.110,14]tricosa-3(23),4,6,10,12,14(22)-hexaene-2,8,8-trione] | +++ (+++ is >600%) | < 1 µM
Cc1cccc(C)c1-c1cc2nc(n1)NS(=O)(=O)c1cccc(c1)C(=O)N1C[C@H](CC(C)C)NC[C@H](C1)O2 [Compound 108, (16R,19S)-12-(2,6-Dimethylphenyl)-19-(2-methylpropyl)-15-oxa-8λ^6-thia-1,9,11,18,22-pentaazatetracyclo[14.4.1.13,7.110,14]tricosa-3(23),4,6,10(22),11,13-hexaene-2,8,8-trione] | +++ (+++ is >600%) | < 1 µM
Cc1cccc(C)c1-c1cc2nc(n1)NS(=O)(=O)c1cccc(c1)C(=O)N1C[C@@H](CN(C3CCC(F)(F)CC3)[C@@H](CC(C)C)C1)O2 [Compound 110, (16R,19S)-18-(4,4-Difluorocyclohexyl)-12-(2,6-dimethylphenyl)-19-(2-methylpropyl)-15-oxa-8λ^6-thia-1,9,11,18,22-pentaazatetracyclo[14.4.1.13,7.110,14]tricosa-3(23),4,6,10(22),11,13-hexaene-2,8,8-trione] | +++ (+++ is >600%) | < 1 µM
Cc1cccc(C)c1-c1cc2nc(n1)NS(=O)(=O)c1cccc(c1)C(=O)N1CCN(C(=O)OC(C)(C)C)[C@@H](CC(C)C)[C@H](C1)O2 [Compound 117, tert-Butyl (16S,17S)-12-(2,6-dimethylphenyl)-17-(2-methylpropyl)-2,8,8-trioxo-15-oxa-8λ^6-thia-1,9,11,18,22-pentaazatetracyclo[14.4.1.13,7.110,14]tricosa-3(23),4,6,10(22),11,13-hexaene-18-carboxylate] | +++ (+++ is >600%) | < 1 µM
Cc1cccc(C)c1-c1cc2nc(n1)NS(=O)(=O)c1cccc(c1)C(=O)N1C[C@@H](CNC[C@H]1C(C)C)O2 [Compound 123, (16R,20R)-12-(2,6-Dimethylphenyl)-20-(propan-2-yl)-15-oxa-8λ^6-thia-1,9,11,18,22-pentaazatetracyclo[14.4.1.13,7.110,14]tricosa-3(23),4,6,10(22),11,13-hexaene-2,8,8-trione] | ++ (++ is 30-60%) | 1 to 3 µM
Cc1cccc(C)c1-c1cc2nc(n1)NS(=O)(=O)c1cccc(c1)C(=O)N1C[C@@H](CN(C)C[C@H]1C(C)C)O2 [Compound 125, (16R,20R)-12-(2,6-Dimethylphenyl)-18-methyl-20-(propan-2-yl)-15-oxa-8λ^6-thia-1,9,11,18,22-pentaazatetracyclo[14.4.1.13,7.110,14]tricosa-3(23),4,6,10(22),11,13-hexaene-2,8,8-trione] | +++ (+++ is >600%) | < 1 µM
Cc1cccc(C)c1-c1cc2nc(n1)NS(=O)(=O)c1cccc(c1)C(=O)N1C[C@@H](CN(C3CCC(F)(F)CC3)C[C@H]1C(C)C)O2 [Compound 126, (16R,20R)-18-(4,4-Difluorocyclohexyl)-12-(2,6-dimethylphenyl)-20-(propan-2-yl)-15-oxa-8λ^6-thia-1,9,11,18,22-pentaazatetracyclo[14.4.1.13,7.110,14]tricosa-3(23),4,6,10(22),11,13-hexaene-2,8,8-trione] | +++ (+++ is >600%) | < 1 µM
